Results from patent US9623226B2, “Device for efficient delivery of compounds to or through the skin or biological barriers, using light-absorbing thin films” (Universidade de Coimbra, priority 2011, dated 2017).

Legend:
[1] = In vitro transdermal delivery through minipig skin samples, passive versus active (photoacoustic device); format: in vitro ADME; details: extraction with dichloromethane and fluorescence, confirming fluorescence microscopy; high-impulse broadband pressure wave versus passive
Description: Skin sections were cut from the back of the minipigs after they had been sacrificed. These skin sections were frozen and kept at −18° C. until use in in vitro tests. Before each in vitro test, the required amount of minipig skin was slowly brought to room temperature. All the tests were carried out at room temperature.
(§1) The skin samples collected after the experiments were analyzed by microscopy to evaluate the penetration depth of the desired compounds, or followed an extraction procedure to evaluate their amounts under the skin. The evaluation of the penetration depth by fluorescence microscopy or by confocal microscopy requires tissue fixation. The first step in the fixation was immersion in paraformaldehyde (4% in aqueous solution) for at least 24 h. Next, the samples were transferred to a 25% sucrose solution for at least 48 h. […] The skin slices were collected in microscope slides and kept refrigerated until they were analyzed by fluorescence microscopy and confocal microscopy. […]
In order to evaluate the quantities of the F2TPPMet delivered under the skin a specific method was developed. […] Fluorescence calibration curves of the pharmacological excipient delivered in the skin were performed in the extractor solvent to validate the methodology used. Finally, the mass delivered onto the skin is determined for each essay substituting its fluorescence in the calibration curve. […]

skin of a minipig = assay: In vivo transdermal delivery on the back of minipigs, passive and active (photoacoustic device); details: device of Example 1, 12 laser shots at 355 nm, 10 mJ per pulse
Excerpt: In vivo and in vitro tests employed four minipigs obtained from IMIDHA (Instituto Madrileño de Investigación y Desarrollo Rural, Agrario y Alimentario)—Aranjuez (Madrid). They were all females, aged 6-8 months, white with brown spots, average weight 56.8 kg (66.2, 57.1, 43.5, 60.6 kg). They were received at Estação Zootécnica Nacional, Vale de Santarém, where they were accommodated in individual boxes with 1.5 m^2, feed with a standard diet for pigs and water ad libidum, for an acclimation period of three weeks. The study was performed in accordance to the Portuguese ethical guidelines on a license granted by Dircção de Serviços de Saúde o Protecção Animal, ref. 0420/000/000/2007. Access to food was suspended 24 h hours before treatment. The backs of the animals were shaved 24 h prior to the in vivo application of the dermatological formulations. […]
as §1, with “fixation.” for “fixation. The first step in the fixation was immersion in paraformaldehyde (4% in aqueous solution) for at least 24 h. Next, the samples were transferred to a 25% sucrose solution for at least 48 h.”

- state of the stratum corneum after active transdermal delivery (skin of a minipig; 20 minutes incubation): stratum corneum remained intact
- distribution in the skin by fluorescence microscopy after active transdermal delivery (skin of a minipig; ca 1 cm^2, 20 minutes incubation): distributed over all the epidermis
Substance: 5,10,15,20-tetrakis(2,6-fluoro-3-N-methylsulfamoylphenyl)porphyrin [F2TPPMet]
- quantity of F2TPPMet delivered to the skin, active versus passive transdermal delivery [1]: increase in the quantity of F2TPPMet delivered to the skin
